Measurements as given in patent US5232917A, “Methods, compositions, and compounds for allosteric modulation of the GABA receptor by members of the androstane and pregnane series” (priority 1991, dated 1993).
Read-outs that look alike come from different tables or passages of the source.

How the values were obtained:
[1] = test system: maximal electroshock seizure; conditions: 1982, cited from earlier work
[2] = test system: metrazol-induced convulsions; parameters: key: NP: no protection; conditions: 1982, cited from earlier work
[3] = test system: (+)bicuculline-induced seizures; parameters: key: NP: no protection; conditions: 1982, cited from earlier work
[4] = test system: picrotoxin-induced convulsions; parameters: key: NP: no protection; conditions: 1982, cited from earlier work
[5] = test system: strychnine-induced convulsions; conditions: 1982, cited from earlier work
[6] = 1982, cited from earlier work
[7] = test system: GABA receptor-chloride ionophore complex (GR complex); experiment: Dissociation kinetics of [35S]TBPS in rat cerebral cortical membranes; assay type: binding; conditions: alphaxalone 300 nM, 3α-OH-DHP 20 nM
[8] = test system: number of light/dark transitions (anxiety); conditions: Blumstein and Crawley, 1983; Crawley et al.; cited from earlier work
[9] = Na pentobarbital 30 μM, 2 nM [35S]TBPS

NC(=O)CCC/N=C(\c1ccc(Cl)cc1)c1cc(F)ccc1O [Progabide]
ED50 MES (maximal electroshock) ([1]; Worms et al.): 75 mg/kg
ED50 MTZ (metrazol) ([2]; convulsant i.v., Worms et al.): 30 mg/kg
ED50 BIC (bicuculline) ([3]; convulsant i.v., Worms et al.): 30 mg/kg
ED50 PICRO (picrotoxin) ([4]; convulsant i.v., Worms et al.): 105 mg/kg
ED50 STR (strychnine) ([5]; convulsant i.v., Worms et al.): 75 mg/kg
LD50 ([6]; Worms et al.): 3000 mg/kg

CCC1(c2ccccc2)C(=O)NC(=O)NC1=O [Phenobarbital]
ED50 MES (maximal electroshock) ([1]; Swinyard & Woodhead): 22 mg/kg
ED50 MTZ (metrazol) ([2]; Swinyard & Woodhead): 13 mg/kg
ED50 BIC (bicuculline) ([3]; Swinyard & Woodhead): 38 mg/kg
ED50 PICRO (picrotoxin) ([4]; Swinyard & Woodhead): 28 mg/kg
ED50 STR (strychnine) ([5]; Swinyard & Woodhead): 95 mg/kg
LD50 ([6]; Swinyard & Woodhead): 265 mg/kg

O=C1NC(=O)C(c2ccccc2)(c2ccccc2)N1 [Phenytoin]
ED50 MTZ (metrazol) ([2]; Swinyard & Woodhead): NP
ED50 BIC (bicuculline) ([3]; Swinyard & Woodhead): NP
ED50 PICRO (picrotoxin) ([4]; Swinyard & Woodhead): NP
Maximum protection, STR (strychnine) ([5]; at 55-100 mg/kg, Swinyard & Woodhead): 50%
LD50 ([6]; Swinyard & Woodhead): 230 mg/kg

CCCC(C)C1(CC)C(=O)NC(=O)NC1=O (stereo not shown) [pentobarbital]
Total percentage of specific sites, rapid (R) ([7]; Na pentobarbital 30 μM): 48 ± 6%
Total percentage of specific sites, slow (S) ([7]; Na pentobarbital 30 μM): 61 ± 6%
K-1, rapidly dissociating component (R) [7, 9]: 0.158 ± 0.013 min⁻¹
K-1, slowly dissociating component (S) [7, 9]: 0.0186 ± 0.0015 min⁻¹
T1/2, rapidly dissociating component (R) [7, 9]: 4.4 ± 0.3 min
T1/2, slowly dissociating component (S) [7, 9]: 38 ± 3 min
biphasic dissociation mechanism of [35S]TBPS ([7]; pentobarbital 30 μM, FIGS. 2A, 2B): induces a biphasic dissociation mechanism
effect on number of light/dark transitions (literature) [8]: increase the number of transitions
